Assay [1] can be described thus: concentration-response yeast growth inhibition under permissive conditions, counter-assay for yeast lifespan-shortening chemical project (AID 850).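 Further: growth read as optical density after one day of incubation.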 Particulars: Saccharomyces cerevisiae growth inhibition, permissive control, measured here: maximum growth inhibition, stronger effect = higher value.
The subject of assay [2] is Saccharomyces cerevisiae growth inhibition, permissive control. The description is as above.

Each structure is given as a SMILES string. pIC50: −log10 of the molar value. Active and inactive are the calls of the source. How the calls were made is not given here.

One may read the inhibition as the relative decrease from the control value, in per cent. The pIC50 is −log10 of the IC50, conventionally taken in molar units. For `CCOC(=O)/C(=N\Nc1ccccc1Cl)N1CCN(Cc2ccccc2)CC1`, in assay [1] (at 50 µM), the inhibition came to 73.9%. Also, the pIC50 in assay [2] was 4.57.

In general, IC50 refers to the concentration at which inhibition is half-maximal. For `O=[N+]([O-])c1cc(/C=N/O)ccc1Sc1ccccc1`, the inhibition in assay [1] (at 50 µM) came out at 7.13%. The IC50 in assay [2] is > 100 µM (inactive).

As to `Cc1c(Cl)cccc1N=Cc1ccc([N+](=O)[O-])s1`, in assay [1] (at 50 µM), the inhibition amounted to 9.36%. Besides, the IC50 in assay [2] was > 100 µM (inactive).

Regarding `CCn1c(=O)c(C(=O)Nn2c(C)nc3ccccc3c2=O)c(O)c2ccccc21`, the inhibition in assay [1] (at 25 µM) stood at 99%. The pIC50 in assay [2] was 4.87.

On to `O=C(O)c1cc2ccc3ccccc3c2oc1=O`, for which the inhibition in assay [1] (at 50 µM) was determined as 64.3%. Also, the pIC50 in assay [2] is 4.49.

Consider `CCOc1cccc(-c2nnc3n2N=C(c2cc(OC)ccc2OC)CS3)c1`, for which, in assay [1] (at 6.25 µM), the inhibition came out at 14.8%. For the same molecule, the IC50 in assay [2] was > 100 µM (inactive).

Turning to `Oc1ccc(/C=C/c2nc(-c3ccccc3O)n(-c3ccccc3)n2)cc1`, the inhibition in assay [1] (at 50 µM) came out at 54.3%. Further, in assay [2], the negative-log IC50 (pIC50) was 4.33.

As for `c1ccc(Cc2nnc3sc(-c4ccco4)nn23)cc1`, the inhibition in assay [1] (at 25 µM) is 4.05%. Further, the IC50 in assay [2] was > 100 µM (inactive).

Turning to `CC1=CC(=O)c2ccccc2C1=O`, the inhibition in assay [1] (at 50 µM) was 88.6%. For the same molecule, the pIC50 in assay [2] was 4.75.

In the case of `CCc1cccc2c(C(=O)COC(=O)c3ccc([N+](=O)[O-])s3)c[nH]c12`, the inhibition in assay [1] (at 50 µM) worked out at 99.4%. Further, in assay [2], the negative-log IC50 (pIC50) was 4.55.

Consider `Oc1ccc(CN2CCCCC2)c2cccnc12`, for which the inhibition in assay [1] (at 50 µM) turned out to be 37.4%. In addition, the pIC50 in assay [2] was 4.29.

Turning to `O=C(Nc1cccc(N=Cc2cc(Br)cc(Br)c2O)c1)c1ccco1`, in assay [1] (at 50 µM), the inhibition came out at 100%. Further, the pIC50 in assay [2] was 4.95.

Consider `CCCc1ccc(OCC(=O)NNC(=S)NC(=O)c2ccco2)cc1`, for which, in assay [1] (at 50 µM), the inhibition turned out to be 98.8%. For the same molecule, the pIC50 in assay [2] was 4.97.

Regarding `FC(F)Sc1ccc(Nc2ncnc3nc[nH]c23)cc1`, the inhibition in assay [1] (at 1.563 µM) is 11.9%. Further, the IC50 in assay [2] was > 100 µM (inactive).

For `O=c1cc(-c2ccccc2)[nH]n1-c1nc2ccccc2[nH]1`, the inhibition in assay [1] (at 50 µM) stood at 97.3%. Besides, the pIC50 in assay [2] was 4.88.

With `O=c1oc2ccccc2cc1-c1cn2cccnc2n1`, the inhibition in assay [1] (at 12.5 µM) was determined as 13.2%. In addition, the IC50 in assay [2] is > 100 µM (inactive).

In the case of `Cc1ccc(N/N=C/c2c(O)cc(C)oc2=O)cc1`, the inhibition in assay [1] (at 50 µM) stood at 99.4%. Moreover, the negative logarithm of the IC50 (pIC50) in assay [2] was 4.93.

Turning to `COC(=O)CSC1=NS(=O)(=O)c2ccccc21`, in assay [1] (at 12.5 µM), the inhibition was found to be 27.4%. In addition, the IC50 in assay [2] is > 100 µM (inactive).

Take `COc1ccc2nc(/N=C(\N)NC(=O)Nc3ccccc3)nc(C)c2c1`: the inhibition in assay [1] (at 50 µM) was found to be 73.7%. Further, the negative logarithm of the IC50 (pIC50) in assay [2] is 4.47.

As for `CCN(CC)c1ccc(S(=O)(=O)N2CCOCC2)cc1NC(=O)CSc1cccc[n+]1[O-]`, the inhibition in assay [1] (at 50 µM) was determined as 96.5%. Moreover, the pIC50 in assay [2] was 4.60.

As for `COc1ccc(C(=O)NC(=S)NNC(=O)c2cnccn2)cc1`, the inhibition in assay [1] (at 50 µM) came to 71.2%. In assay [2], the negative logarithm of the IC50 (pIC50) is 4.85.

In the case of `N/C(Cc1ccc(Cl)cc1)=N\OC(=O)C1CCCCC1`, in assay [1] (at 50 µM), the inhibition worked out at 98.8%. For the same molecule, in assay [2], the pIC50 was 4.80.

With `NNC(=O)c1cccc(COc2ccc3c(c2)CCC3)c1`, in assay [1] (at 50 µM), the inhibition was 71%. In addition, the pIC50 in assay [2] was 4.48.

With `COc1ccccc1-c1nnc(NC(=O)C(C)SC2=NCCS2)s1` (centres undefined), the inhibition in assay [1] (at 12.5 µM) stood at 16.8%. In addition, the IC50 in assay [2] was > 100 µM (inactive).

As for `O=C(OCn1ncc(Cl)c(Cl)c1=O)c1ccc(F)cc1`, in assay [1] (at 50 µM), the inhibition was determined as 23%. Besides, in assay [2], the IC50 was > 100 µM (inactive).

`COc1cc(OC)nc(NC(=O)CS(=O)(=O)c2ccccc2)n1`: in assay [1] (at 50 µM), the inhibition is 77.3%. In addition, the pIC50 in assay [2] was 4.76.

Consider `CCCCN=C(NNc1ccc(Br)cc1)C(=O)OCC`, for which the inhibition in assay [1] (at 50 µM) was 97.9%. Besides, the pIC50 in assay [2] was 5.26.

Take `Cc1cccnc1Nc1nc(-c2ccccn2)cs1`: the inhibition in assay [1] (at 50 µM) was 94.5%. In assay [2], the pIC50 was 4.42.

For the molecule `CC(C)(C)c1cc(NCCCn2ccnc2)n2ncc(-c3ccc(Cl)cc3)c2n1`, in assay [1] (at 12.5 µM), the inhibition is 1.41%. In assay [2], the IC50 is > 100 µM (inactive).

Take `O=C1CSC(=S)N1c1cccnc1`: the inhibition in assay [1] (at 50 µM) was found to be 14.8%. In addition, the IC50 in assay [2] was > 100 µM (inactive).

For the molecule `CNC(=S)N/N=C(\C)c1ccc(N2CCOCC2)cc1`, the inhibition in assay [1] (at 0.195 µM) worked out at 9.86%. For the same molecule, in assay [2], the IC50 is > 100 µM (inactive).

Regarding `COC(=O)c1ccc(C(=O)OC)c(NC(=O)CSc2cccc[n+]2[O-])c1`, in assay [1], the inhibition was 100%. Further, the pIC50 in assay [2] is 5.96.

`CCCCOC(=O)n1c(=S)oc2cc(Cl)ccc21`: in assay [1] (at 50 µM), the inhibition was 99.8%. Further, the pIC50 in assay [2] is 4.84.

For the molecule `O=C(NC1CCCCC1)Sc1ccc(Cl)cc1`, the inhibition in assay [1] (at 50 µM) came to 24.2%. In addition, in assay [2], the IC50 is > 100 µM (inactive).

On to `OC(CNCCc1ccc(C(F)(F)F)cc1)COc1ccc2ccccc2c1` (centres undefined), for which the inhibition in assay [1] (at 50 µM) turned out to be 20.9%. Further, the IC50 in assay [2] was > 100 µM (inactive).

On to `COc1ccc(CN2CN(C(C)C)CSC2=S)cc1`, for which the inhibition in assay [1] (at 50 µM) was found to be 26.3%. Moreover, the IC50 in assay [2] was > 100 µM (inactive).

Consider `CCSc1nnc(NC(=O)c2ccccn2)s1`, for which the inhibition in assay [1] (at 50 µM) worked out at 97.8%. Further, the negative logarithm of the IC50 (pIC50) in assay [2] is 4.90.

Take `CCCCCCCOC(=O)C[N+](C)(C)CCOC1CC2CCC1(C)C2(C)C` (centres undefined): the inhibition in assay [1] (at 50 µM) is 99.4%. The pIC50 in assay [2] is 4.53.

Take `O=Nc1c(O)n(Cc2ccc(Cl)c(Cl)c2)c2ccccc12`: the inhibition in assay [1] (at 50 µM) was found to be 58.3%. Moreover, the pIC50 in assay [2] is 4.37.

In the case of `Cc1cc(C)c2c(=O)n(CC(=O)N3CCC(Cc4ccccc4)CC3)sc2n1`, in assay [1] (at 0.391 µM), the inhibition amounted to 6.81%. The IC50 in assay [2] was > 100 µM (inactive).

As for `CCN(CC)S(=O)(=O)c1ccc(NC(=O)CSc2cccc[n+]2[O-])cc1`, the inhibition in assay [1] (at 50 µM) amounted to 90.1%. For the same molecule, the pIC50 in assay [2] is 4.50.

Take `COCCN1CSC(=S)N(Cc2ccco2)C1`: the inhibition in assay [1] (at 50 µM) amounted to 64.7%. The negative-log IC50 (pIC50) in assay [2] is 4.46.

Turning to `Clc1ccccc1N/N=C/c1ccc2c(c1)OCO2`, the inhibition in assay [1] (at 50 µM) worked out at 98%. Further, in assay [2], the negative-log IC50 (pIC50) was 4.61.

For `CCc1ccc(/C=C/C(=O)c2cc(Br)ccc(=O)c2O)cc1`, the inhibition in assay [1] (at 50 µM) was 83.6%. For the same molecule, the negative logarithm of the IC50 (pIC50) in assay [2] was 4.88.

Take `Fc1ccc(Br)cc1C1C=C(c2cccnc2)Nc2ncnn21` (centres undefined): the inhibition in assay [1] (at 50 µM) came out at 26.3%. In addition, the IC50 in assay [2] was > 100 µM (inactive).

Regarding `Clc1cccc(CN2COc3c(cc(Cl)c4cccnc34)C2)c1`, the inhibition in assay [1] (at 50 µM) came out at 101%. Also, in assay [2], the negative-log IC50 (pIC50) was 5.16.

Take `CCCCCC/C(C)=C1/SC(=S)NC1=O`: the inhibition in assay [1] (at 12.5 µM) was determined as 15.5%. In addition, in assay [2], the IC50 is > 100 µM (inactive).

With `CCCCCCCCC/C(=N\O)c1ccccn1`, the inhibition in assay [1] (at 50 µM) is 101%. The pIC50 in assay [2] was 5.26.

Turning to `c1ccc(-n2c(-c3ccco3)nnc2-c2ccco2)cc1`, the inhibition in assay [1] (at 12.5 µM) was determined as 22.7%. For the same molecule, the IC50 in assay [2] is > 100 µM (inactive).

For the molecule `CCCc1ccc(Oc2c(-c3ccc(O)c(C)c3O)n[nH]c2C)cc1`, the inhibition in assay [1] (at 50 µM) came out at 93.6%. For the same molecule, in assay [2], the negative logarithm of the IC50 (pIC50) was 4.83.

Turning to `O=C(Nc1nc(-c2ccccn2)cs1)c1ncc(Cl)c(Cl)c1Cl`, the inhibition in assay [1] (at 12.5 µM) amounted to 13.1%. In assay [2], the IC50 was > 100 µM (inactive).

Turning to `O=C(CSC1=NS(=O)(=O)c2ccccc21)Nc1ccccc1`, the inhibition in assay [1] (at 50 µM) turned out to be 17.7%. Besides, the IC50 in assay [2] is > 100 µM (inactive).
